“And” between values parts separate entries of the source, which are not always exact repeats. Identical values can stand only once.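 A five-concentration, 48-hour dose response in 96-well plates underlies each endpoint, interpolated linearly between surrounding concentrations. GI50 is the concentration that inhibits growth by half. TGI: concentration producing complete growth inhibition.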
Legend:
Assay in all cases: inhibition of tumour cell growth, NCI panel, 48 h
EKVX NSCLC = tested on: EKVX NSCLC
HCC-2998 colon = tested on: HCC-2998 colon
HOP-92 NSCLC = tested on: HOP-92 NSCLC
M14 melanoma = tested on: M14 melanoma
MALME-3M melanoma = tested on: MALME-3M melanoma
MDA-MB-231 breast = tested on: MDA-MB-231 breast
MDA-MB-435 = tested on: MDA-MB-435
TK-10 renal = tested on: TK-10 renal
KM20L2 colon = tested on: KM20L2 colon
XF 498 CNS = tested on: XF 498 CNS

Structure (SMILES)	TGI (EKVX NSCLC)	TGI (HCC-2998 colon) [µM]	TGI (HOP-92 NSCLC)	TGI (M14 melanoma)	TGI (MALME-3M melanoma)	TGI (MDA-MB-231 breast) [µM]	TGI (MDA-MB-435)	TGI (TK-10 renal)	TGI (KM20L2 colon)	TGI (XF 498 CNS) [µM]	GI50 (MALME-3M melanoma) [µM]	GI50 (EKVX NSCLC) [µM]	GI50 (HOP-92 NSCLC)	GI50 (M14 melanoma) [µM]	GI50 (TK-10 renal) [µM]	GI50 (HCC-2998 colon) [µM]	GI50 (MDA-MB-231 breast)	GI50 (MDA-MB-435)	GI50 (KM20L2 colon) [µM]
O=C(/C=C/C=C/c1ccccc1)CCc1ccccc1	> 100 µM	> 100	> 100 µM	> 100 µM	> 100 µM	> 100	> 100 µM	> 100 µM	–	–	–	–	–	–	–	–	–	–	–
CC(=O)NC1=C(Nc2ccc(C)cc2)C(=O)c2ccccc2C1=O	> 75 µM	> 75	–	25.3 µM	22.8 µM	–	–	> 75 µM	> 75 µM	73.1	–	–	–	–	–	–	–	–	–
Cc1ccccc1CN1CC2=C(CCN(Cc3ccccc3)C2=O)N2CCN=C12	> 100 µM	> 70.6	> 100 µM	> 100 µM	> 100 µM	> 80	> 100 µM	> 100 µM	–	–	9.84	–	–	–	–	–	–	–	–
CC(=O)OCC1OC(OC2CC3C(C)(C)C(OC(C)=O)CC[C@]3(C)C3CCC45CC4(CC[C@H]5C(C)CC(O)[C@@H](O)C(C)(C)O)[C@]23C)C(O)C(O)C1O (some centres not stated)	13.1 µM and 29.2 µM	12.9	13.1 µM and 11.7 µM	13.1 µM and 16.6 µM	13.9 µM and 26 µM	–	–	14 µM and 26.5 µM	14.4 µM and 21.6 µM	33.9	13.2	15.8	4.05 µM	4.97	13.6	–	–	–	–
CCOc1cc2c(cnc3c4cc(OC)c(OC)cc4ccc23)cc1OC	> 100 µM	> 100	–	> 100 µM	> 100 µM	–	–	> 100 µM	> 100 µM	> 100	–	–	–	–	–	–	–	–	–
COc1ccc(C2=NN(C(=O)COc3ccc(Cl)cc3)C(O)(c3cc(F)c(Cl)cc3Cl)C2)cc1OC (configuration not stated)	22.8 µM	13.3	13.2 µM	6.5 µM	3.76 µM	6.53	3.48 µM	5.09 µM	–	–	1.72	10.5	2.31 µM	2.18	2.36	3.91	2.41 µM	1620 nM	–
C/C=C(\C)C(=O)N[C@H]1[C@@H](OC(C)=O)C[C@]2(C)C3CC[C@@]4(C)C(CC[C@@H]4C(C)N(C)C)C3CCC2[C@H]1O (some centres not stated)	31.4 µM	21.7	15.5 µM	3.72 µM	6.43 µM	10.7	6.78 µM	24.5 µM	–	–	2.03	5.63	1.04 µM	2.02	8.32	7.15	3.23 µM	2270 nM	–
CCN(CC)CCOc1ccc(Nc2ncc3cc(-c4ccc(O)cc4)c(=O)n(C)c3n2)cc1	37.5 µM	30.5	31.1 µM	7.12 µM	2.44 µM	7.36	16.1 µM	8.73 µM	–	–	0.734	15.1	12.9 µM	1.27	3.9	15.4	1.17 µM	983 nM	–
COc1ccc(C(=O)C(c2ccc(OC)cc2)C2(O)C(=O)Nc3c(C)cc(Cl)cc32)cc1 (configuration not stated)	> 100 µM	> 100	> 100 µM	> 100 µM	> 100 µM	–	–	> 100 µM	> 100 µM	–	–	–	–	–	–	–	–	–	–
c1nc2cscc2c2cscc12	–	> 100	> 100 µM	> 100 µM	> 100 µM	–	–	> 100 µM	–	> 100	–	–	–	–	–	–	–	–	–
COc1ccc(/C=C\c2cc(OC)c(OC)c(OC)c2)cc1OC(=O)C(N)CCC(=O)O (configuration not stated)	> 100 µM	–	0.0086 µM	–	–	–	0.000799 µM and 0.000118 µM	> 100 µM	9.55 µM	0.0491	0.00136	–	0.00298 µM and 0.000791 µM	0.000565	–	–	0.00211 µM and 0.00795 µM	0.169 nM and 0.049 nM	1.51
N=C1c2nc3n(c2C(=O)c2nc4n(c21)CCCC4)CCCC3	> 100 µM	12.8	> 100 µM	3.29 µM	3.7 µM	> 100	0.504 µM	> 100 µM	–	–	1.7	44.7	52.8 µM	1.82	52.6	3.74	33.6 µM	235 nM	–
[N-]=[N+]=C(C(=O)OCC#CCOC(=O)C(=[N+]=[N-])S(=O)(=O)c1ccccc1)S(=O)(=O)c1ccccc1	> 10 µM	> 10	> 10 µM	> 10 µM	> 10 µM	> 10	> 10 µM	> 10 µM	–	–	–	–	–	–	–	–	–	–	–
Clc1ccc(-n2nnc(C3=NCCCN3)c2-c2ccccc2)cc1	> 100 µM	> 100	> 100 µM	> 100 µM	> 100 µM	–	–	> 100 µM	> 100 µM	> 100	–	–	–	–	–	–	–	–	–
COc1cc(Cl)cc(-c2nn(C(=O)NCCN3CCN(C)CC3)cc2-c2ccncc2)c1	37.1 µM	39.1	26.2 µM	29.3 µM	43.4 µM	43.5	35 µM	> 100 µM	–	–	9.28	0.971	2.83 µM	9.46	3.67	17.5	9.7 µM	10400 nM	–
CCCCCCCCCNCCCCCCCCC	5.95 µM	3.24	3.03 µM	3.19 µM	3.85 µM	3.21	3.58 µM	3.23 µM	–	–	1.91	2.15	1.47 µM	1.76	1.75	1.69	1.56 µM	1850 nM	–
COC(=O)/C=C(C)/C=C/c1cc(C(C)=O)c(C)o1	> 100 µM	> 100	> 100 µM	> 100 µM	> 100 µM	–	–	–	> 100 µM	> 100	–	–	–	–	–	–	–	–	–
CC(=O)[CH-]C(=O)c1ccccc1.CC(=O)[CH-]C(=O)c1ccccc1.CC(=O)[CH-]C(=O)c1ccccc1.[Tl+3]	> 100 µM	> 100	> 85.7 µM	> 93 µM	49.2 µM	–	–	> 100 µM	> 100 µM	–	20.2	31.8	40.6 µM	24.7	> 59.2	37.5	–	–	45.6

Reference: PubChem BioAssay (NCI)
